Experimental findings from patent publication US20240197874A1, “MATERIALS AND METHODS FOR IMPROVING EFFICACY OF ADOPTIVE IMMUNE CELL THERAPY” (priority 2021, published 2024) are described below.

The structures appear in SMILES notation.

Series [1] relates to mTORC1. Nature of the series: Endosome isolation and in vitro mTORC1 kinase activity assay toward S6K1. It counts as biochemical, human. To be noted: cells pre-treated 2 hours with 1 μM inhibitor; day 3.
Series [2] relates to Naïve CD4 T cells. Nature of the series: Percentage of live cells (Annexin V negative) of activated naïve CD4 T cells with increasing inhibitor doses. Type of series: cell-based, human. Particulars: for toxicity of doses used for lysosome inhibition: chloroquine 20 μM, Bafilomycin A1 10 nM. Here is the method: FIGS. 2A-2H. Naïve CD4 T cells from old adults lose lysosomal function but maintain mTORC1 activity after activation on day 5. (FIG. 2A and FIG. 2B) Naïve CD4 T cells from young and old individuals were activated with anti-CD3/anti-CD28 beads for 5 days followed by DQBSA treatments for 6 hours. Fluorescence of cleaved DQ-BSA was analyzed by flow cytometry to determine lysosome activities (FIG. 2A). Phospho-S6K1 (Thr389) protein expression (right) was determined by Western blotting (FIG. 2B). (FIG. 2C) Naïve CD4 T cells were activated for 5 days in the presence of increasing doses of chloroquine (CQ), bafilomycin A1 (BafA1) or JPH203. The percentage of live cells was determined as the frequency of Annexin V negative population. Mean+SD of four experiments. (FIGS. 2D-2G) Naïve CD4 T cells were activated for 5 days with the last 2-day culture with vehicle, chloroquine (CQ) or bafilomycin A1 (BafA1). Alternatively, cells were transfected with control or TFEB siRNA and activated for 5 days. (FIG. 2D) Lysosomal activities were determined as in (FIG. 2A). (FIG. 2E) mTORC1 activity was determined as in (FIG. 2B). (FIG. 2F) TFEB protein silencing were confirmed by Western blotting on day 5 after activation. (FIG. 2G) AKT phosphorylation was determined by Western blotting on day 5 after activation. **p<0.01; NS, not significant. (FIG. 2H) Naïve CD4 T cells from three old individuals were activated and treated with CQ as in (FIG. 2D). SLC7A5 and c-MYC protein expression were determined. Comparison by two-tailed paired t test. *p<0.05, **p<0.01; NS, not significant.
Isolated human naïve CD4 T cells were activated with Dynabeads Human T-Activator CD3/CD28 (11132D, Thermo Fisher Scientific) in RPMI 1640 (Sigma) supplemented with 10% fetal bovine serum (FBS) and 100 U/mL penicillin and streptomycin (Thermo Fisher Scientific). Mouse T cells were activated in plates coated with 8 μg/mL anti-CD3 Ab (16-0032-82, eBioscience) and 8 μg/mL anti-CD28 Ab (16-0281-82, eBioscience) in culture medium supplemented with 10 ng/ml IL-2 (21212, Peprotech). […]

Series [3] concerns mTORC1. Type of series: cell-based, human. Particulars: for S6K1 phosphorylation (mTORC1 activity) under lysosome inhibition: young individuals, day 5, last 2 days with inhibitor.
Series [4] has as its system Naïve CD4 T cells. Nature of the series: DQ-BSA lysosomal activity assay in activated naïve CD4 T cells. Type of series: cell-based, human. Here is the method: Cells were treated with 5 μg/mL of DQ-BSA (D12050, Thermo Fisher Scientific) diluted in prewarmed medium and incubated at 37° ° C. for 6 hours. Cells were then briefly washed once with ice-cold PBS containing 2% FBS and kept on ice. Fluorescence of cleaved BSA-DQ was analyzed by flow cytometry.

Series [5] has as its system lysosomal cathepsin genes (CTSB, CTSD, CTSH and CTSS). Nature of the series: Lysosomal cathepsin gene expression by qRT-PCR. Type of series: cell-based, human. Here is the method: FIGS. 6A-6F. Sustained activation of late endosomal mTORC1 suppresses lysosomal activities in naïve CD4 T cell responses. (FIGS. 6A-6F) Naïve CD4 T cells from young (Y) and old (O) individuals were activated for 5 days. Indicated inhibitor or vehicle control was added for the last 2 days of culture (FIGS. 6A-6B and FIGS. 6E-6F). Alternatively, cells were transfected with control or VPS39 siRNA and then activated with anti-CD3/anti-CD28 beads for 5 days (FIGS. 6C-6D). (FIG. 6A, FIG. 6C, FIG. 6E, and FIG. 6F) Lysosomal cathepsins expressions were determined by qRT-PCR (left); results are normalized to control samples using 18S rRNA as internal control; mean+SD of four experiments; comparison by two-tailed paired t-test. Lysosomal activities were determined by flow cytometry-based analysis of cells treated with 5 μg/mL of DQ-BSA for 6 hours. Results are shown as representative histograms (middle) and cumulative data from four experiments (right, two-tailed paired t-test). The gray histogram represents DQ-BSA free samples. […]
Total RNA was isolated using the RNeasy Plus Mini Kit (74134, QIAGEN) and converted to cDNA using the SuperScript VILO cDNA Synthesis Kit (11754, Invitrogen). Quantitative RT-PCR was performed on the ABI 7900HT system (Applied Biosystems) using Power SYBR Green PCR Master Mix (4368706, Thermo Fisher Scientific), according to the manufacturer's instructions.

For another series, the system named is PD-1. Type of series: cell-based, human. To be noted: T cells from old adults; day 5.
The mark [6] stands for this setting: young individuals, day 5, last 2 days with inhibitor.
[7] abbreviates: CQ and JPH203-cotreated young cells vs CQ alone.
Where [8] appears, read: day 5-activated T cells from old adults.

Turning to `Cl.Cl.NC1(c2ccc(-c3nc4ccn5c(=O)[nH]nc5c4cc3-c3ccccc3)cc2)CCC1` [AKT inhibitor, MK-2206 2HCl], the “mTORC1 kinase activity of endosome isolates toward the substrate S6K1” value in the series with mTORC1 [1] is on record as “not seen”.

On to `CO/C1=C\C(C)=C\[C@@H](C)[C@@H](O)[C@@H](C)C/C(C)=C/C=C/[C@H](OC)[C@@H]([C@@H](C)[C@@H](O)[C@H](C)[C@@]2(O)C[C@@H](O)[C@H](C)[C@@H](C(C)C)O2)OC1=O` [Bafilomycin A1], for which, in the series with Naïve CD4 T cells [2], the “toxicity of doses used for lysosome inhibition” value is given as “nontoxic”. The “S6K1 phosphorylation (mTORC1 activity) under lysosome inhibition” value in the series on mTORC1 [3] is recorded as “neither reduced S6K1”. For the same molecule, the lysosomal activities result in the series with Naïve CD4 T cells [4] (setting [6]) is listed as “reduced lysosomal activities”.

Regarding `Nc1cc(COc2c(Cl)cc(C[C@H](N)C(=O)O)cc2Cl)c2oc(-c3ccccc3)nc2c1` [JPH203], the “cytotoxicity (percentage of live cells, Annexin V negative)” value in the series on Naïve CD4 T cells [2] (5 μM, titration experiments, activated naïve CD4 T cells) is “not cytotoxic”. Further, the “inhibition of mTORC1 activity” value in the series with mTORC1 [3] (5 μM, phosphorylation of S6RP, titration experiments) is listed as “about 50%”. The “mTORC1 activity on day 3” value in the series on mTORC1 [3] (day 3 after activation, young and old cells, 5 μM) was “reduced mTORC1 activity in both young and old cells”. The “excess mTORC1 activity on day 5 in old activated T cells” value in the series on mTORC1 [3] (day 5, old adults, inhibitor for last 2 days, 5 μM) is recorded as “sensitive to SLC7A5 inhibition”. Moreover, the lysosomal activities entry with Naïve CD4 T cells [4] (setting [7]) is given as “increased”. Moreover, the lysosomal cathepsins entry in series [5] (setting [7]) is reported as “increased”.

As for `CCC(=O)N1CCN(c2ccc(-n3c(=O)ccc4cnc5ccc(-c6cnc7ccccc7c6)cc5c43)cc2C(F)(F)F)CC1` [Torin 1], in the series with Naïve CD4 T cells [4] (setting [8]), the lysosomal proteolytic activities result was “partially restored”. Besides, the “TFEB-dependent transcription of lysosomal cathepsin genes” value in series [5] (setting [8]) was “partially restored”. Also, in the series with PD-1, the “cell surface protein expression of PD-1” value was “reduced cell surface protein expression” and the “transcripts of PD-1” value is listed as “without effects on transcripts”.

As for `CCN(CC)CCCC(C)Nc1ccnc2cc(Cl)ccc12` (centres unmarked) [chloroquine, Chloroquine], the “toxicity of doses used for lysosome inhibition” value in the series with Naïve CD4 T cells [2] is “nontoxic”. In the series with mTORC1 [3], the “S6K1 phosphorylation (mTORC1 activity) under lysosome inhibition” value is reported as “neither reduced S6K1”. Also, the lysosomal activities result with Naïve CD4 T cells [4] (setting [6]) is given as “reduced lysosomal activities”.
